The record followed here is patent US20160122307A1, “PERHYDROQUINOXALINE DERIVATIVES” (DR. AUGUST WOLFF GMBH & CO. KG ARZNEIMITTEL, priority 2013, published 2016).

The target in the experiment is Human opiate κ receptors (Homo sapiens, UniProt P41145). Put plainly: κ opioid receptor functional assay, [35S]GTPγS binding (assay C). The class given is biochemical. Conditions: for activation at 1 µM: 0.5 h, read-out: % activation functional assay at 1 μM. For orientation: GTPγS is a poorly hydrolysed GTP analogue; its binding reports G protein activation.
Where [1] appears, read: read-out: EC50 (nM) [35S]GTPγS binding.

What is called EC50 is the concentration that produces a half-maximal response. As usually defined, the pEC50 is −log10 of the EC50, conventionally taken in molar units.

pEC50: −log10 of the molar value. Read-outs that look alike come from different tables or passages of the source.

Human opiate κ receptors, sequence (P41145 whole entry): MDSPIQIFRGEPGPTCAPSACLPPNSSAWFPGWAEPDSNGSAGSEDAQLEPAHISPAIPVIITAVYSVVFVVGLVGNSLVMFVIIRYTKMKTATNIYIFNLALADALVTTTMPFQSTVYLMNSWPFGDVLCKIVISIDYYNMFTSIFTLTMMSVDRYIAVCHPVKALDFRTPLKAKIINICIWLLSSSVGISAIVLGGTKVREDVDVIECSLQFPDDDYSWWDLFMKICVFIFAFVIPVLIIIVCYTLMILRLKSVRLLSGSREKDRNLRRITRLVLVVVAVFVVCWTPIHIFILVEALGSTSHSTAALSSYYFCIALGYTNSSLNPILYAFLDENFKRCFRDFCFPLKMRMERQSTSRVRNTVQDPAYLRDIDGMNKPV

Take `COC(=O)N1CCN(C(=O)Cc2ccc(Cl)c(Cl)c2)[C@@H]2[C@@H](N3CCCC3)CCC[C@@H]21` (racemic) [Example 1]: the “activation (% of control) at 1 μM” value is 109 % of control and the activation at 1 µM came to 109%.
For `O=C(C1CCC1)N1CCN(C(=O)Cc2ccc(Cl)c(Cl)c2)C2C(N3CCCC3)CCCC21` (racemic) [Example 27], the activation at 1 µM was found to be 103%. In addition, for the setting “GTPγS EC50 (nM)”, the concentration giving a half-maximal response (EC50) was below 10 nM.
The like results for `O=C(C1COC1)N1CCN(C(=O)Cc2ccc(Cl)c(Cl)c2)C2C(N3CCCC3)CCCC21` (racemic) [Example 54] were, in that order, 104% and 10 to 100 nM.
The matching figures for `COC(=O)N1CCN(C(=O)Cc2ccc(C(F)(F)F)c(Cl)c2)[C@@H]2[C@@H](N3CC[C@@H](O)C3)CCC[C@@H]21` [Example 113]: 102% and below 10 nM.
The matching figures for `O=C(O)CNC(=O)N1CCN(C(=O)Cc2ccc(Cl)c(Cl)c2)C2C(N3CCCC3)CCCC21` (racemic) [Example 77]: 98% and 10 to 100 nM.
For the molecule `CS(=O)(=O)N1CCN(C(=O)Cc2ccc(Cl)c(Cl)c2)[C@@H]2[C@@H](N3CCCC3)CCC[C@@H]21` [Example 102], the activation at 1 µM came out at 106%. In addition, the EC50 (GTPγS EC50 (nM)) is below 10 nM.
Turning to `COC(=O)N1CCN(C(=O)Cc2ccc3c(c2)CCCC3)C2C(N3CCCC3)CCCC21` (racemic) [Example 6], the activation at 1 µM is 97%. This molecule also gave an EC50 (GTPγS EC50 (nM)) of 10 to 100 nM.
The like results for `CC(C)C(=O)N1CCN(C(=O)Cc2ccc(Cl)c(Cl)c2)C2C(N3CCCC3)CCCC21` (racemic) [Example 26] were, in that order, 119% and below 10 nM.
The like results for `COC(=O)N1CCN(C(=O)Cc2ccc(Cl)c(Cl)c2)[C@@H]2[C@@H](N(C)C)CCC[C@@H]21` [Example 90] were, in that order, 96% and below 10 nM.
The matching figures for `COC(=O)N1CCN(C(=O)Cc2ccc(C(F)(F)F)cc2)C2C(N3CCCC3)CCCC21` (racemic) [Example 5]: 105% and below 10 nM.
On to `COC(=O)N1CCN(C(=O)Cc2ccc(Cl)c(Cl)c2)C2C(N3CC(O)C3)CCCC21` (racemic) [Example 71], for which the “% activation functional assay at 1 μM” value stood at 113%. In addition, the pEC50 (read-out: GTPγS EC50) is 7.00 to 8.00.
As for `CCN(C)C1CCCC2C1N(C(=O)Cc1ccc(Cl)c(Cl)c1)CCN2C(=O)OC` (racemic) [Example 45], the activation at 1 µM came to 91%. The molecule further gave a concentration giving a half-maximal response (EC50) (GTPγS EC50 (nM)) below 10 nM.
`O=C(c1ccccc1)N1CCN(C(=O)Cc2ccc(Cl)c(Cl)c2)C2C(N3CCCC3)CCCC21` (racemic) [Example 31]: the “activation (% of control) at 1 μM” value was 93 % of control and the activation at 1 µM was 93%.
For the molecule `CCC(=O)N1CCN(C(=O)Cc2ccc(Cl)c(Cl)c2)C2C(N3CCCC3)CCCC21` (stereo not drawn) [N, reference compound], the “activation (% of control) at 1 μM” value is reported as 63 % of control. The EC50 under setting [1] worked out at 600 nM.
Turning to `COC(=O)N1CCN(C(=O)Cc2ccc(C(F)(F)F)c(Cl)c2)[C@@H]2[C@@H](N3CCCC3)CCC[C@@H]21` [Example 93], the activation at 1 µM came out at 101%. The molecule also registered a concentration for a half-maximal effect (EC50) (GTPγS EC50 (nM)) below 10 nM.
The like results for `CNC(=O)N1CCN(C(=O)Cc2ccc(Cl)c(Cl)c2)C2C(N3CCCC3)CCCC21` (racemic) [Example 62] were, in that order, 104% and 10 to 100 nM.
Regarding `O=C(O)CC(=O)N1CCN(C(=O)Cc2ccc(Cl)c(Cl)c2)C2C(N3CCCC3)CCCC21` (racemic) [Example 37], the “activation (% of control) at 1 μM” value was 87 % of control and the activation at 1 µM was determined as 87%. This molecule had a pEC50 (EC50 kappa opioid receptor activation) of 7.66. Under “GTPγS EC50 (nM)”, this molecule showed an EC50 of 10 to 100 nM.
As to `O=C(Cc1ccc(Cl)c(Cl)c1)N1CCN(Cc2cccnc2)[C@@H]2CCC[C@H](N3CCCC3)[C@H]21` (racemic) [Y, reference compound], the “activation (% of control) at 1 μM” value is 96 % of control. In addition, for the setting “EC50 (nM) [35S]GTPγS binding”, a half-maximal response (EC50) required 34 nM.
As for `CS(=O)(=O)N1CCN(C(=O)Cc2ccc(C(F)(F)F)c(Cl)c2)[C@@H]2[C@@H](N3CC[C@H](O)C3)CCC[C@@H]21` [Example 124], the activation at 1 µM is 97%. Where the note is “GTPγS EC50 (nM)”, this molecule returned an EC50 below 10 nM.
Take `COC(=O)N1CCN(C(=O)Cc2ccc(Cl)c(Cl)c2)C2C(N3CCC(O)C3)CCCC21` (stereo not drawn) [S, reference compound]: where the note is “1 µM”, the “activation (% of control) at 1 μM” value was 91 % of control. Also, the EC50 under setting [1] came to 85 nM.
Consider `CN(C)C(=O)N1CCN(C(=O)Cc2ccc(Cl)c(Cl)c2)C2C(N3CCCC3)CCCC21` (racemic) [Example 34], for which the activation at 1 µM amounted to 107%. This molecule came in with an EC50 (GTPγS EC50 (nM)) of 10 to 100 nM.
Take `CC(=O)OCC(=O)N1CCN(C(=O)Cc2ccc(Cl)c(Cl)c2)C2C(N3CCCC3)CCCC21` (racemic) [Example 58]: the activation at 1 µM stood at 96%. This molecule registered an EC50 (GTPγS EC50 (nM)) of 10 to 100 nM.
The matching figures for `COC(=O)N1CCN(C(=O)Cc2ccc(Cl)cc2)C2C(N3CCCC3)CCCC21` (racemic) [Example 47]: 101% and below 10 nM.
The like results for `COC(=O)N1CCN(C(=O)Cc2cccc(Cl)c2)C2C(N3CCCC3)CCCC21` (racemic) [Example 46] were, in that order, 96% and below 10 nM.
The like results for `NC(=O)CNC(=O)N1CCN(C(=O)Cc2ccc(Cl)c(Cl)c2)C2C(N3CCCC3)CCCC21` (racemic) [Example 76] were, in that order, 106% and 10 to 100 nM.
In the case of `Cl.O=C(OCc1ccccc1)N1CCN(C(=O)Cc2ccc(Cl)c(Cl)c2)C2C(N3CCCC3)CCCC21` (stereo not drawn) [Example 95], the “% activation functional assay at 1 μM” value came out at 104%. Under “read-out: GTPγS EC50”, the pEC50 is above 8.00.
Regarding `COC(=O)N1CCN(C(=O)Cc2ccc(Cl)c(Cl)c2)[C@H]2[C@H](N3CCCC3)CCC[C@@H]21` (racemic) [Reference compound B, reference compound], the “activation (% of control) at 1 μM” value was 90 % of control and the activation at 1 µM was determined as 90%.
`NC(=O)c1ccc(C(=O)N2CCN(C(=O)Cc3ccc(Cl)c(Cl)c3)C3C(N4CCCC4)CCCC32)cc1` (racemic) [Example 87]: the activation at 1 µM came out at 109%.
Consider `CS(=O)(=O)N1CCN(C(=O)Cc2ccc(Cl)c(Cl)c2)C2C(N3CCCC3)CCCC21` (racemic) [Example 23], for which the activation at 1 µM was 91%. For the setting “GTPγS EC50 (nM)”, the EC50 was below 10 nM.
As for `COC(=O)CC(=O)N1CCN(C(=O)Cc2ccc(Cl)c(Cl)c2)C2C(N3CCC(O)C3)CCCC21` (stereo not drawn) [U, reference compound], the “activation (% of control) at 1 μM” value is on record as 86 % of control. The EC50 under setting [1] worked out at 170 nM.
As for `O=C(C1CC1)N1CCN(C(=O)Cc2ccc(Cl)c(Cl)c2)C2C(N3CCCC3)CCCC21` (racemic) [Example 28], the activation at 1 µM turned out to be 111%. For the same molecule, for the setting “GTPγS EC50 (nM)”, the EC50 was below 10 nM.
Take `O=C(Cc1ccc(Cl)c(Cl)c1)N1CCN(Cc2cccnc2)C2CCCC(N3CCCC3)C21` (racemic) [Example 48]: the “activation (% of control) at 1 μM” value is given as 100 % of control and the activation at 1 µM worked out at 100%. Where the note is “EC50 (nM) [35S]GTPγS binding”, this molecule had an EC50 of 4.99 nM. The molecule also came in with a half-maximal effective concentration (EC50) (GTPγS EC50 (nM)) below 10 nM.
For the molecule `COC(=O)N1CCN(C(=O)Cc2ccc(Cl)cc2)[C@@H]2[C@@H](N3CC[C@H](O)C3)CCC[C@@H]21` [Example 140], the activation at 1 µM was found to be 103%. Moreover, the EC50 (GTPγS EC50 (nM)) is 10 to 100 nM.
The like results for `O=C(N1CCCC1)N1CCN(C(=O)Cc2ccc(Cl)c(Cl)c2)C2C(N3CCCC3)CCCC21` (racemic) [Example 38] were, in that order, 109% and 10 to 100 nM.
The like results for `COC(=O)N1CCN(C(=O)Cc2cccc([N+](=O)[O-])c2)C2C(N3CCCC3)CCCC21` (racemic) [Example 3] were, in that order, 105% and 10 to 100 nM.
Regarding `O=C(O)CC(=O)N1CCN(C(=O)Cc2ccc(Cl)c(Cl)c2)C2C(N3CCC(O)C3)CCCC21` (mixture of isomers) [T, reference compound], the “activation (% of control) at 1 μM” value was 11 % of control and the “activation of the kappa opioid receptors at 1 μM” value was “no or little activation”. Under “EC50 (nM) [35S]GTPγS binding”, the EC50 was above 1000 nM.
For the molecule `COC(=O)c1cccc(C(=O)N2CCN(C(=O)Cc3ccc(Cl)c(Cl)c3)C3C(N4CCCC4)CCCC32)c1` (racemic) [Example 86], the activation at 1 µM turned out to be 86%.
Turning to `Cl.Cl.Cl.O=C(Cc1ccc(Cl)c(Cl)c1)N1CCN(c2cccnc2)C2CCCC(N3CCCC3)C21` (racemic) [Example 72], the “% activation functional assay at 1 μM” value is reported as 106%. Also, where the note is “read-out: GTPγS EC50”, the pEC50 was above 8.00.
On to `O=C(C1CCCN1)N1CCN(C(=O)Cc2ccc(Cl)c(Cl)c2)C2C(N3CCCC3)CCCC21` (racemic) [Example 80], for which the activation at 1 µM turned out to be 76%. Where the note is “GTPγS EC50 (nM)”, the 50% effective concentration (EC50) is 100 to 1000 nM.
`O=C(c1ncccn1)N1CCN(C(=O)Cc2ccc(Cl)c(Cl)c2)C2C(N3CCCC3)CCCC21` (racemic) [Example 83]: the “% activation functional assay at 1 μM” value was found to be 111%.
On to `COC(=O)N1CCN(C(=O)Cc2ccc(Cl)c(Cl)c2)[C@H]2[C@H](N3CCCC3)CCC[C@@H]21` (single isomer, unassigned) [Reference compound C, reference compound], for which the activation at 1 µM was 85%.
On to `COC(=O)N1CCN(C(=O)Cc2ccc(F)c(Cl)c2)[C@@H]2[C@@H](N3CCCC3)CCC[C@@H]21` [Example 92], for which the activation at 1 µM was determined as 105%. Where the note is “GTPγS EC50 (nM)”, this molecule returned an EC50 of 10 to 100 nM.
Consider `COC(=O)N1CCN(C(=O)Cc2ccc(Cl)c(Cl)c2)[C@@H]2[C@H]1CCC[C@@H]2N1CCCC1` (racemic) [Reference compound E, reference compound], for which the activation at 1 µM was 68%.
In the case of `O=C(Nc1ccccc1)N1CCN(C(=O)Cc2ccc(Cl)c(Cl)c2)C2C(N3CCCC3)CCCC21` (racemic) [Example 43], the activation at 1 µM turned out to be 107%. Besides, the EC50 (GTPγS EC50 (nM)) was below 10 nM.
The matching figures for `COC(=O)N1CCN(C(=O)Cc2ccc(Cl)s2)C2C(N3CCCC3)CCCC21` (racemic) [Example 8]: 97% and 10 to 100 nM.
